Assay results published in the CheMixHub viscosity set.

Assay: xn = mol fraction of the nth substance listed

Oc1cccc(O)c1O + C[N+](C)(C)CCO.[Cl-]
viscosity [mPa·s], 101.3 kPa
Conditions | 293.15 K | 298.15 K | 303.15 K | 308.15 K | 313.15 K | 318.15 K | 323.15 K
x2 = 0.333 | 6400 | 4850 | 3200 | 2000 | 1250 | 800 | 600
x2 = 0.5 | 6100 | 3750 | 2500 | 1500 | 1000 | 750 | 500

Oc1cccc2ccccc12 + CCO
viscosity [mPa·s], 101 kPa
Conditions | x1 = 0.03 | x1 = 0.06 | x1 = 0.09 | x1 = 0.12 | x1 = 0.15
293.15 K | 1.425 | 1.638 | 1.885 | 2.205 | 2.538
303.15 K | 1.158 | 1.337 | 1.523 | 1.733 | 1.968
313.15 K | 0.964 | 1.103 | 1.251 | 1.417 | 1.6
323.15 K | 0.795 | 0.91 | 1.048 | 1.186 | 1.339

NCCN1CCNCC1 + O
101.3 kPa
Conditions | viscosity [mPa·s]
298 K, x1 = 0.00152 | 0.92
298 K, x1 = 0.00275 | 0.95
298 K, x1 = 0.00774 | 1.11
298 K, x1 = 0.0161 | 1.38
298 K, x1 = 0.0255 | 1.82
303 K, x1 = 0.00152 | 0.87
303 K, x1 = 0.00275 | 0.89
303 K, x1 = 0.00774 | 1
303 K, x1 = 0.0161 | 1.25
303 K, x1 = 0.0255 | 1.66
303.2 K, x1 = 0.015 | 1.241
303.2 K, x1 = 0.024 | 1.651
303.2 K, x1 = 0.034 | 2.17
303.2 K, x1 = 0.044 | 2.861
303.2 K, x1 = 0.056 | 3.918
303.2 K, x1 = 0.07 | 4.722
303.2 K, x1 = 0.085 | 5.556
313 K, x1 = 0.00152 | 0.74
313 K, x1 = 0.00275 | 0.78
313 K, x1 = 0.00774 | 0.85
313 K, x1 = 0.0161 | 1.04
313 K, x1 = 0.0255 | 1.32
313.2 K, x1 = 0.015 | 1.001
313.2 K, x1 = 0.024 | 1.312
313.2 K, x1 = 0.034 | 1.589
313.2 K, x1 = 0.044 | 2.074
313.2 K, x1 = 0.056 | 2.839
313.2 K, x1 = 0.07 | 3.558
313.2 K, x1 = 0.085 | 4.367
323 K, x1 = 0.00152 | 0.6
323 K, x1 = 0.00275 | 0.61
323 K, x1 = 0.00774 | 0.69
323 K, x1 = 0.0161 | 0.83
323 K, x1 = 0.0255 | 1.03

CCCCC(=O)O + CCCCCCO
viscosity [mPa·s], 100 kPa
Conditions | x1 = 0.0922 | x1 = 0.1786 | x1 = 0.2643 | x1 = 0.3791 | x1 = 0.4723 | x1 = 0.5917 | x1 = 0.6782 | x1 = 0.7647 | x1 = 0.8655 | x1 = 0.9463
293.15 K | 5.13 | 4.89 | 4.64 | 4.3 | 4 | 3.61 | 3.33 | 3.04 | 2.7 | 2.43
303.15 K | 3.78 | 3.63 | 3.47 | 3.24 | 3.04 | 2.79 | 2.6 | 2.4 | 2.17 | 1.99
313.15 K | 2.84 | 2.74 | 2.63 | 2.49 | 2.36 | 2.18 | 2.06 | 1.93 | 1.78 | 1.65
323.15 K | 2.18 | 2.11 | 2.03 | 1.93 | 1.85 | 1.74 | 1.66 | 1.57 | 1.48 | 1.4

Oc1cccc(O)c1 + CCCO
viscosity [mPa·s], 101 kPa
Conditions | 293.15 K | 303.15 K | 323.15 K
x1 = 0.07 | 3.605 | – | 1.675
x1 = 0.28 | – | 12.05 | –

Oc1cccc(O)c1O + CCCC[N+](CCCC)(CCCC)CCCC.[Br-]
101.3 kPa, x2 = 0.5
Conditions | viscosity [mPa·s]
293.15 K | 30000
298.15 K | 18500
303.15 K | 11000
308.15 K | 6000
313.15 K | 3250
318.15 K | 1850
323.15 K | 1200

CCCCO + CCCO
Conditions | viscosity [mPa·s]
293.15 K, 101.33 kPa, x2 = 0.152 | 2.84
293.15 K, 101.33 kPa, x2 = 0.3302 | 2.715
293.15 K, 101.33 kPa, x2 = 0.5008 | 2.566
293.15 K, 101.33 kPa, x2 = 0.616 | 2.474
293.15 K, 101.33 kPa, x2 = 0.7172 | 2.41
293.15 K, 101.33 kPa, x2 = 0.8933 | 2.282
298.15 K, 101 kPa, x1 = 0.1009 | 2.024
298.15 K, 101 kPa, x1 = 0.2 | 2.082
298.15 K, 101 kPa, x1 = 0.3013 | 2.135
298.15 K, 101 kPa, x1 = 0.4026 | 2.194
298.15 K, 101 kPa, x1 = 0.5009 | 2.254
298.15 K, 101 kPa, x1 = 0.6055 | 2.319
298.15 K, 101 kPa, x1 = 0.6279 | 2.326
298.15 K, 101 kPa, x1 = 0.7983 | 2.432
298.15 K, 101 kPa, x1 = 0.8992 | 2.494
298.15 K, 101.33 kPa, x2 = 0.1147 | 2.507
298.15 K, 101.33 kPa, x2 = 0.3211 | 2.378
298.15 K, 101.33 kPa, x2 = 0.4966 | 2.261
298.15 K, 101.33 kPa, x2 = 0.6315 | 2.172
298.15 K, 101.33 kPa, x2 = 0.7297 | 2.118
298.15 K, 101.33 kPa, x2 = 0.9322 | 2.001

Fc1c(F)c(F)c(F)c(F)c1F + Cc1cccc(C)n1
viscosity [mPa·s], 101.33 kPa
Conditions | x2 = 0.091 | x2 = 0.165 | x2 = 0.229 | x2 = 0.283 | x2 = 0.497 | x2 = 0.5 | x2 = 0.712 | x2 = 0.767 | x2 = 0.832 | x2 = 0.908
293.15 K | – | 0.9415 | 0.9457 | – | – | 0.9333 | 0.8943 | 0.8824 | 0.8673 | 0.8549
298.15 K | – | 0.869 | 0.8709 | 0.8665 | 0.8598 | 0.8584 | 0.8268 | 0.8175 | 0.8052 | 0.7928
308.15 K | – | 0.7494 | 0.7485 | 0.7439 | 0.7372 | 0.736 | 0.7137 | 0.7072 | 0.6997 | 0.6916
318.15 K | 0.6629 | 0.6586 | 0.6562 | – | 0.6401 | 0.6401 | 0.6252 | 0.6209 | 0.616 | 0.611
